Values of other authors, collected in patent US10174388B2, “Method for selection of agents influencing intestinal motility disorders and pain” (BioGaia AB, priority 2012, dated 2019).
Where two headings read alike, the source gives them in different places.

Conditions: baseline 197 minutes in both groups

simethicone
median daily crying time (day 7): 177 min
median daily crying time (day 28): 145 min
